According to patent publication US6537803B1, “Amino acid transporters and uses” (Oregon Health Sciences University, priority 1993, dated 2003):
Where two headings read alike, the source gives them in different places.

Tests used:
[1] = target: T1, human ASCT1 neutral amino acid transporter (Homo sapiens, UniProt P43007); assay: radiolabeled amino acid uptake in ASCT1 RNA-injected Xenopus oocytes; assay type: cell-based; details: Amino Acid (1 mM); n = 5
T1 construct: expressed in transfected cells; host or cells: Xenopus laevis oocytes injected with in vitro transcribed RNA (pOTV vector)
T1 sequence (P43007 1-532): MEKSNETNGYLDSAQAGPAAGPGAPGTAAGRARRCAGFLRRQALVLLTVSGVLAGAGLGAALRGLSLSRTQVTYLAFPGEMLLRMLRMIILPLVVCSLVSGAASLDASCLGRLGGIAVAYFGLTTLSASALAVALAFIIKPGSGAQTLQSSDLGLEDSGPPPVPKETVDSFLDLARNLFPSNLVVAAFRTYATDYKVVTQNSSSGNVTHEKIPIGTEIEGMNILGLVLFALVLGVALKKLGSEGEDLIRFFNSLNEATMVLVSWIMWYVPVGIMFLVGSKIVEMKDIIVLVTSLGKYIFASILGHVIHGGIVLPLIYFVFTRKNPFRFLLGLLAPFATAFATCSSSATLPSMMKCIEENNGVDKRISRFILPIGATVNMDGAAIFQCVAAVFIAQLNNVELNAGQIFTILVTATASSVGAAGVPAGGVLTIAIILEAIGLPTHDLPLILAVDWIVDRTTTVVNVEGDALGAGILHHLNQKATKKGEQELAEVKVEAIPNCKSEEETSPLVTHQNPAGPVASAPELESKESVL
Text: (§1) Following the PCR, the product of the amplification reaction was purified using standard techniques (Saiki et al., 1988, Science 239: 487-491). The DNA then digested with the restriction enzymes KpnI and XbaI and then cloned into the polylinker of an oocyte transcription vector (POTV; see Wang el al., 1991, Nature 352: 729-731) that had been digested with KpnI and XbaI. Synthetic RNA was then transcribed in vitro from this clone using the method of Kavanaugh et al. (1992, J. Biol. Chem. 267: 22007-22009) employing bacteriophage T7 RNA polymerase (New England Biolabs, Beverly, Mass.). 20-50 nL of ASCT1 RNA (at a concentration of about 400 μg/mL) was injected into defolliculated stage V-VI Xenopus oocytes excised from female Xenopus laevis anesthetized by immersion in 3-aminobenzoic acid for 60 min. Excised oocytes were treated with collagenase II (Sigma Chemical Co., St. Louis, Mo.) in calcium-free Barth's saline solution [comprising 88 mM NaCl, 1 mM KCl, 2.4 mM NaHCO3, 0.82 mM MgSO4, 7.5 mM Tris-HCl (pH 7.6), 50 U/mL Nystatin (Sigma) and 0.1 mg/mL gentamycin (Sigma)] for 60 min., and then incubated overnight at 15° C. in 50% Leibowitz's L-15 media (Grand Island Biological Co. (GIBCO), Long Island, N.Y.). After overnight incubation the oocytes were mechanically defolliculated and then were injected with ASCT-1 RNA and incubated at 19° C. for 48 h (see Kim el al., 1991, Nature 352: 725-728 for further details of Xenopus oocyte preparation and microinjection).
(§2) Amino acid transport in such oocytes was assayed using [^3H] alanine, [^3H] serine or [^35S] cysteine (obtained from New England Nuclear, Boston, Mass.). Briefly, microinjected oocytes were […] at −60 mV using a Dagan TEV-200 clamp amplifier with an Axon Instruments (Foster City, Calif.) TL-1 A/D interface controlled by pCLAMP software (Axon Instruments) (see Kavanaugh et al., 1992, J. Biol. Chem. 267: 22007-22009 for a detailed review of this methodology) and continuously superfused with ND-96 buffer (consisting of 96 mM NaCl/2 mM KCl/1.8 mM CaCl2/1 mM MgCl2/5 mM HEPES, pH 7.5). For transport measurements, this solution was changed to a solution containing varying concentrations of the radiolabeled amino acids in ND-96 buffer.

Water-injected Oocytes = assay: radiolabeled amino acid uptake in water-injected Xenopus oocytes; assay type: cell-based, Xenopus laevis; details: Amino Acid (1 mM); n = 5
Text: as §1
as §2, with “For transport measurements, this solution was changed to a solution containing varying concentrations of the radiolabeled amino acids in ND-96 buffer.” left out

[2] = target: T1, human ASCT1 neutral amino acid transporter; assay: amino acid-induced inward current in voltage-clamped ASCT1-injected Xenopus oocytes; assay type: cell-based; details: for Imax (maximal current): L-stereoisomer, current normalized to the maximum response obtained with L-alanine, mean ± standard error; for membrane response (inward Na+ currents) of ASCT1-injected oocytes: ND-96 buffer, clamped at −60 mV
Text: as §1, §2
More detailed analyses of ithe kinetics of amino acid influx were performed by least squares linear regression analysis of induced inward current ([I]) plotted as a function of substrate amino acid concentration ([S]), using the equation shown in the legend of Table II.

[3] = target: human EAAT1 excitatory amino acid transporter (Homo sapiens, UniProt P43003); assay: electrogenic amino acid uptake in EAAT1-expressing Xenopus oocytes; details: for electrogenic uptake in EAAT1-expressing oocytes: 1000 μM
Procedure: (§3) Such RNA preparations were each introduced into Xenopus oocytes as descnbed in Example 3 to enable expression therein. Amino acid uptake experiments were performed on such oocytes expressing each of the glutamate transporters, also as described in Example 3.
(§4) These experiments were performed essentially as described for the ASCT1 transporter in Example 3.

neuronal cell = details: cited from earlier work
[4] = substrate: CC(C)[C@H](N)C(=O)O; assay: amino acid-induced inward current in voltage-clamped ASCT1-injected Xenopus oocytes; assay type: cell-based, human; details: other: L-stereoisomer; least squares fit of induced inward current vs substrate concentration; mean ± standard error, at least 5 determinations
Procedure: (§5) Amino acid transport in such oocytes was assayed using [^3H] alanine, [^3H] serine or [^35S] cysteine (obtained from New England Nuclear, Boston, Mass.). Briefly, microinjected oocytes were patch-lamped at −60 mV using a Dagan TEV-200 clamp amplifier with an Axon Instruments (Foster City, Calif.) TL-1 A/D interface controlled by pCLAMP software (Axon Instruments) (see Kavanaugh et al., 1992, J. Biol. Chem. 267: 22007-22009 for a detailed review of this methodology) and continuously superfused with ND-96 buffer (consisting of 96 mM NaCl/2 mM KCl/1.8 mM CaCl2/1 mM MgCl2/5 mM HEPES, pH 7.5). For transport measurements, this solution was changed to a solution containing varying concentrations of the radiolabeled amino acids in ND-96 buffer.

[5] = substrate: N[C@@H](CO)C(=O)O; assay: as above; assay type: cell-based, human; details: other: L-stereoisomer; least squares fit of induced inward current vs substrate concentration; mean ± standard error, at least 5 determinations
Procedure: as §5

[6] = substrate: N[C@@H](CS)C(=O)O; assay: as above; assay type: cell-based, human; details: other: L-stereoisomer; least squares fit of induced inward current vs substrate concentration; mean ± standard error, at least 5 determinations
Procedure: as §5

[7] = substrate: C[C@@H](O)[C@H](N)C(=O)O; assay: cells, lysate or membranes; details: other: L-stereoisomer; least squares fit of induced inward current vs substrate concentration; mean ± standard error, at least 5 determinations
[8] = substrate: C[C@H](N)C(=O)O; assay: cells, lysate or membranes; details: other: L-stereoisomer; least squares fit of induced inward current vs substrate concentration; mean ± standard error, at least 5 determinations
[9] = substrate: N[C@@H](CS)C(=O)O; assay: cells, lysate or membranes; details: other: inward current vs extracellular substrate concentration
Procedure: as §3, §4

rate of radiolabeled amino acid uptake, ASCT1 RNA-injected Oocytes [1]	Imax (maximal current) [2]	electrogenic uptake in EAAT1-expressing oocytes [3]	Molecule	rate of radiolabeled amino acid uptake, Water-injected Oocytes (Water-injected Oocytes)	membrane response (inward Na+ currents) of ASCT1-injected oocytes [2]	other results
18 ± 2 pmol/min per oocyte	(1.0)	did not result in electrogenic uptake	C[C@H](N)C(=O)O [L-alanine]	0.6 ± 0.1 pmol/min per oocyte	hyperpolarization of the cell plasma membrane was produced	–
–	–	–	N[C@@H](CCC(=O)O)C(=O)O [L-glutamate]	–	–	extracellular concentration causing neuronal cell death (neuronal cell; Bouvier et al., 1992, Nicholls & Attwell): > 300 µM; extracellular concentration causing neuronal cell death (neuronal cell; for 5 min., Choi et al., 1987): > 5 µM; inward electric current in EAAT1-expressing oocytes (stereospecificity) [3]: did not result in the generation of an inward electric current; inward current in EAAT1-expressing oocytes ([3]; 100 μM in ND-96): inward currents as high as several microamps; Km ([3]; inward current vs extracellular substrate concentration): 54 µM
20 ± 5.1 pmol/min per oocyte	1.2 ± 0.08	did not result in electrogenic uptake	N[C@@H](CO)C(=O)O [L-serine]	0.4 ± 0.1 pmol/min per oocyte	hyperpolarization of the cell plasma membrane was produced	–
–	–	–	human ASCT1 neutral amino acid transporter (Homo sapiens) (protein, expressed in transfected cells; host or cells: Xenopus laevis oocytes injected with in vitro transcribed RNA (pOTV vector)) MEKSNETNGYLDSAQAGPAAGPGAPGTAAGRARRCAGFLRRQALVLLTVSGVLAGAGLGAALRGLSLSRTQVTYLAFPGEMLLRMLRMIILPLVVCSLVSGAASLDASCLGRLGGIAVAYFGLTTLSASALAVALAFIIKPGSGAQTLQSSDLGLEDSGPPPVPKETVDSFLDLARNLFPSNLVVAAFRTYATDYKVVTQNSSSGNVTHEKIPIGTEIEGMNILGLVLFALVLGVALKKLGSEGEDLIRFFNSLNEATMVLVSWIMWYVPVGIMFLVGSKIVEMKDIIVLVTSLGKYIFASILGHVIHGGIVLPLIYFVFTRKNPFRFLLGLLAPFATAFATCSSSATLPSMMKCIEENNGVDKRISRFILPIGATVNMDGAAIFQCVAAVFIAQLNNVELNAGQIFTILVTATASSVGAAGVPAGGVLTIAIILEAIGLPTHDLPLILAVDWIVDRTTTVVNVEGDALGAGILHHLNQKATKKGEQELAEVKVEAIPNCKSEEETSPLVTHQNPAGPVASAPELESKESVL	–	–	Km [4]: 390 ± 8 µM; Km [5]: 88 ± 11 µM; Km [6]: 29 ± 6 µM; Km [7]: 137 ± 19 µM; Km [8]: 71 ± 14 µM
–	–	–	human EAAT1 excitatory amino acid transporter (Homo sapiens) (protein) MTKSNGEEPKMGGRMERFQQGVRKRTLLAKKKVQNITKEDVKSYLFRNAFVLLTVTAVIVGTILGFTLRPYRMSYREVKYFSFPGELLMRMLQMLVLPLIISSLVTGMAALDSKASGKMGMRAVVYYMTTTIIAVVIGIIIVIIIHPGKGTKENMHREGKIVRVTAADAFLDLIRNMFPPNLVEACFKQFKTNYEKRSFKVPIQANETLVGAVINNVSEAMETLTRITEELVPVPGSVNGVNALGLVVFSMCFGFVIGNMKEQGQALREFFDSLNEAIMRLVAVIMWYAPVGILFLIAGKIVEMEDMGVIGGQLAMYTVTVIVGLLIHAVIVLPLLYFLVTRKNPWVFIGGLLQALITALGTSSSSATLPITFKCLEENNGVDKRVTRFVLPVGATINMDGTALYEALAAIFIAQVNNFELNFGQIITISITATAASIGAAGIPQAGLVTMVIVLTSVGLPTDDITLIIAVDWFLDRLRTTTNVLGDSLGAGIVEHLSRHELKNRDVEMGNSVIEENEMKKPYQLIAQDNETEKPIDSETKM	–	–	Km [9]: 300 µM

Molecule	rate of radiolabeled amino acid uptake, ASCT1 RNA-injected Oocytes [1]	Imax (maximal current) [2]	electrogenic uptake in EAAT1-expressing oocytes [3]	rate of radiolabeled amino acid uptake, Water-injected Oocytes (Water-injected Oocytes)	membrane response (inward Na+ currents) of ASCT1-injected oocytes [2]	other results
N[C@@H](CS)C(=O)O [L-cysteine]	19.2 ± 5.9 pmol/min per oocyte	1.0 ± 0.04	capable of being electrogenically transported	1.0 ± 0.3 pmol/min per oocyte	hyperpolarization of the cell plasma membrane was produced	–
